Measurements from patent publication US9593108B2, “Compounds and methods for antiviral treatment” (PTC Therapeutics, Inc., priority 2009, dated 2017).

Legend:
[1] = system: HCV replicon RNA (GenBank Accession No. AJ242654); assay: HCV Replicon Assay (replicon RNA reduction and/or Fluc reporter signal); format: cell-based, Hepatitis C virus; settings: Hepatitis C virus, 72 h, replicon-containing cells cultured with test compound for up to 3 days
Summary of the method: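 IC50 values mostly reflect the drop in replicon RNA, though Fluc reporter signal may also be used. Compound incubated with cells carrying the bicistronic replicon for as long as 3 days; interferon served as positive control.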

SMILES | melting point [°C] | IC50 [1] [nM]
COc1ccc2c(n1)c(C#N)c(-c1ccc(NS(=O)(=O)C(C)C)cc1)n2CC1CC1 [Cpd 3, N-{4-[3-cyano-1-(cyclopropylmethyl)-5-methoxy-1H-pyrrolo[3,2-b]pyridin-2-yl]phenyl}propane-2-sulfonamide] | 230 to 232 | < 500
N#Cc1c(-c2ncc(S(=O)(=O)NC(CF)CF)cn2)n(C2CCC2)c2ncc(F)cc12 [Cpd 16, 2-(3-cyano-1-cyclobutyl-5-fluoro-1H-pyrrolo[2,3-b]pyridin-2-yl)-N-(1,3-difluoropropan-2-yl)pyrimidine-5-sulfonamide] | 204 to 206 | 500 to 2000
CCc1cnc2c(c1)c(C#N)c(-c1ccc(S(=O)(=O)N[C@@H](C)C(F)(F)F)cn1)n2-c1ccc(F)cn1 [Cpd 474, 6-[3-cyano-5-ethyl-1-(5-fluoropyridin-2-yl)-1H-pyrrolo[2,3-b]pyridin-2-yl]-N-[(2S)-1,1,1-trifluoropropan-2-yl]pyridine-3-sulfonamide] | 175 to 177 | < 500
Cc1ccc2c(C#N)c(-c3ncc(S(=O)(=O)NC(CF)CF)cn3)n(C3CCC3)c2n1 [Cpd 147, 2-(3-cyano-1-cyclobutyl-6-methyl-1H-pyrrolo[2,3-b]pyridin-2-yl)-N-(1,3-difluoropropan-2-yl)pyrimidine-5-sulfonamide] | 211 to 217 | < 500
CC1(NS(=O)(=O)c2cnc(-c3c(C#N)c4cc(Cl)cnc4n3C3CCC3)nc2)CC1 [Cpd 286, 2-(5-chloro-3-cyano-1-cyclobutyl-1H-pyrrolo[2,3-b]pyridin-2-yl)-N-(1-methylcyclopropyl)pyrimidine-5-sulfonamide] | 237 to 240 | < 500
Cc1cnc2c(c1)c(C#N)c(-c1ncc(S(=O)(=O)NC(C)C)cn1)n2C1CCC1 [Cpd 78, 2-(3-cyano-1-cyclobutyl-5-methyl-1H-pyrrolo[2,3-b]pyridin-2-yl)-N-(propan-2-yl)pyrimidine-5-sulfonamide] | 187 to 190 | < 500
N#Cc1c(-c2ccc(S(=O)(=O)NC3(C(F)(F)F)CC3)cc2)n(C2CCCC2)c2cc(Cl)ncc12 [Cpd 89, 4-(6-chloro-3-cyano-1-cyclopentyl-1H-pyrrolo[3,2-c]pyridin-2-yl)-N-[1-(trifluoromethyl)cyclopropyl]benzenesulfonamide] | 288 to 289 | 2000 to 5000
Cc1cnc2c(c1)c(C#N)c(-c1ccc(S(=O)(=O)N[C@@H](C)C(F)(F)F)cn1)n2-c1ccccc1 [Cpd 348, 6-(3-cyano-5-methyl-1-phenyl-1H-pyrrolo[2,3-b]pyridin-2-yl)-N-[(2S)-1,1,1-trifluoropropan-2-yl]pyridine-3-sulfonamide] | 220 to 222 | < 500
CC(C)NS(=O)(=O)c1ccc(-c2c(C#N)c3cc(Cl)cnc3n2C2CCC2)cc1 [Cpd 6, 4-(5-chloro-3-cyano-1-cyclobutyl-1H-pyrrolo[2,3-b]pyridin-2-yl)-N-(propan-2-yl)benzenesulfonamide] | 172 to 175 | < 500
C[C@H](NS(=O)(=O)c1cnc(-c2c(C#N)c3cc(C#N)cnc3n2C2CCC2)nc1)C(F)(F)F [Cpd 109, 2-(3,5-dicyano-1-cyclobutyl-1H-pyrrolo[2,3-b]pyridin-2-yl)-N-[(2S)-1,1,1-trifluoropropan-2-yl]pyrimidine-5-sulfonamide] | 216 to 219 | < 500
CC(C)(NS(=O)(=O)c1ccc(-c2c(C#N)c3cc(C(F)(F)F)cnc3n2C2CCCCC2)nc1)C(F)(F)F [Cpd 417, 6-[3-cyano-1-cyclohexyl-5-(trifluoromethyl)-1H-pyrrolo[2,3-b]pyridin-2-yl]-N-(1,1,1-trifluoro-2-methylpropan-2-yl)pyridine-3-sulfonamide] | 177 to 179 | < 500
Cc1cnc2c(C#N)c(-c3ncc(S(=O)(=O)NC(CF)CF)cn3)n(C3CCCC3)c2c1 [Cpd 177, 2-(3-cyano-1-cyclopentyl-6-methyl-1H-pyrrolo[3,2-b]pyridin-2-yl)-N-(1,3-difluoropropan-2-yl)pyrimidine-5-sulfonamide] | 256 to 258 | < 500
Cc1cnc2c(c1)c(C#N)c(-c1ccc(S(=O)(=O)N[C@@H](C)C(F)(F)F)cn1)n2-c1cscn1 [Cpd 507, 6-[3-cyano-5-methyl-1-(1,3-thiazol-4-yl)-1H-pyrrolo[2,3-b]pyridin-2-yl]-N-[(2S)-1,1,1-trifluoropropan-2-yl]pyridine-3-sulfonamide] | 186 to 188 | < 500
Cc1cnc2c(c1)c(C#N)c(-c1ccc(S(=O)(=O)N[C@@H](C)C(F)(F)F)cn1)n2C(C)C [Cpd 493, 6-[3-cyano-5-methyl-1-(propan-2-yl)-1H-pyrrolo[2,3-b]pyridin-2-yl]-N-[(2S)-1,1,1-trifluoropropan-2-yl]pyridine-3-sulfonamide] | 157 to 162 | < 500
C[C@H](NS(=O)(=O)c1ccc(-c2c(C#N)c3ncc(Cl)cc3n2C2CCC2)nc1)C(F)(F)F [Cpd 234, 6-(6-chloro-3-cyano-1-cyclobutyl-1H-pyrrolo[3,2-b]pyridin-2-yl)-N-[(2S)-1,1,1-trifluoropropan-2-yl]pyridine-3-sulfonamide] | 201 to 205 | < 500
Cc1cnc2c(C#N)c(-c3ncc(S(=O)(=O)N[C@@H](C)C(F)(F)F)cn3)n(C3CCC3)c2c1 [Cpd 215, 2-(3-cyano-1-cyclobutyl-6-methyl-1H-pyrrolo[3,2-b]pyridin-2-yl)-N-[(2S)-1,1,1-trifluoropropan-2-yl]pyrimidine-5-sulfonamide] | 268 to 269 | 500 to 2000
COc1cnc2c(c1)c(C#N)c(-c1ccc(S(=O)(=O)N[C@H](C)C(F)(F)F)cn1)n2C1CCCC1 [Cpd 268, 6-(3-cyano-1-cyclopentyl-5-methoxy-1H-pyrrolo[2,3-b]pyridin-2-yl)-N-[(2R)-1,1,1-trifluoropropan-2-yl]pyridine-3-sulfonamide] | 181 to 184 | 500 to 2000
CC(C)NS(=O)(=O)c1cnc(-c2c(C#N)c3cc(F)cnc3n2C2CCC2)nc1 [Cpd 37, 2-(3-cyano-1-cyclobutyl-5-fluoro-1H-pyrrolo[2,3-b]pyridin-2-yl)-N-(propan-2-yl)pyrimidine-5-sulfonamide] | 207 to 209 | < 500
C[C@H](NS(=O)(=O)c1ccc(-c2c(C#N)c3cc(N(C)C)cnc3n2C2CCC2)cc1)C(F)(F)F [Cpd 500, 4-[3-cyano-1-cyclobutyl-5-(dimethylamino)-1H-pyrrolo[2,3-b]pyridin-2-yl]-N-[(2S)-1,1,1-trifluoropropan-2-yl]benzenesulfonamide] | 198 to 200 | < 500
C[C@H](NS(=O)(=O)c1ccc(-c2c(C#N)c3ccncc3n2C2CCC2)nc1)C(F)(F)F [Cpd 103, 6-(3-cyano-1-cyclobutyl-1H-pyrrolo[2,3-c]pyridin-2-yl)-N-[(2S)-1,1,1-trifluoropropan-2-yl]pyridine-3-sulfonamide] | 199 to 201 | < 500
Cc1cc2c(C#N)c(-c3ccc(S(=O)(=O)NC4(C)CC4)cn3)n(C3CCC3)c2cn1 [Cpd 168, 6-(3-cyano-1-cyclobutyl-5-methyl-1H-pyrrolo[2,3-c]pyridine-2-yl)-N-(1-methylcyclopropyl)pyridine-3-sulfonamide] | 185 to 190 | < 500
C[C@H](NS(=O)(=O)c1cnc(-c2c(C#N)c3cc(Cl)cnc3n2C2CCCC2)nc1)C(F)(F)F [Cpd 25, 2-(5-chloro-3-cyano-1-cyclopentyl-1H-pyrrolo[2,3-b]pyridin-2-yl)-N-[(2S)-1,1,1-trifluoropropan-2-yl]pyrimidine-5-sulfonamide] | 206 to 208 | 500 to 2000
Cc1cnc2c(c1)c(C#N)c(-c1ccc(S(=O)(=O)N[C@@H](C)C(F)(F)F)cn1)n2-c1cnccn1 [Cpd 349, 6-[3-cyano-5-methyl-1-(pyrazin-2-yl)-1H-pyrrolo[2,3-b]pyridin-2-yl]-N-[(2S)-1,1,1-trifluoropropan-2-yl]pyridine-3-sulfonamide] | 220 to 222 | < 500
Cc1cnc2c(c1)c(C#N)c(-c1cc(C)c(S(=O)(=O)N[C@@H](C)C(F)(F)F)cn1)n2C1CCC1 [Cpd 289, 6-(3-cyano-1-cyclobutyl-5-methyl-1H-pyrrolo[2,3-b]pyridin-2-yl)-4-methyl-N-[(2S)-1,1,1-trifluoropropan-2-yl]pyridine-3-sulfonamide] | 218 to 223 | < 500
C[C@@H](NS(=O)(=O)c1ccc(-c2c(C#N)c3cc(C4CC4)cnc3n2C2CCCC2)nc1)C(F)(F)F [Cpd 249, 6-(3-cyano-1-cyclopentyl-5-cyclopropyl-1H-pyrrolo[2,3-b]pyridin-2-yl)-N-[(2R)-1,1,1-trifluoropropan-2-yl]pyridine-3-sulfonamide] | 155 to 164 | 500 to 2000
Cc1cnc2c(c1)c(C(N)=O)c(-c1ccc(S(=O)(=O)NC(C)(C)C(F)(F)F)cc1)n2C1CCC1 [Cpd 341, 1-cyclobutyl-5-methyl-2-{4-[(1,1,1-trifluoro-2-methylpropan-2-yl)sulfamoyl]phenyl}-1H-pyrrolo[2,3-b]pyridine-3-carboxamide] | 235 to 237 | < 500
C[C@H](NS(=O)(=O)c1ccc(-c2c(C(N)=O)c3cc(Cl)cnc3n2C2CCCC2)nc1)C(F)(F)F [Cpd 324, 5-chloro-1-cyclopentyl-2-(5-{[(2S)-1,1,1-trifluoropropan-2-yl]sulfamoyl}pyridin-2-yl)-1H-pyrrolo[2,3-b]pyridine-3-carboxamide] | 289 to 295 | < 500
C[C@H](NS(=O)(=O)c1ccc(-c2c(C(N)=O)c3cc(C(F)(F)F)cnc3n2C2CCCCC2)cc1)C(F)(F)F [Cpd 437, 1-cyclohexyl-5-(trifluoromethyl)-2-(4-{[(2S)-1,1,1-trifluoropropan-2-yl]sulfamoyl}phenyl)-1H-pyrrolo[2,3-b]pyridine-3-carboxamide] | 291 to 293 | < 500
